Assays:
Assay type in all cases: in vivo
rice (Oryza sativa) = experiment: Test B flooded paddy test, visual plant response rating 0-100; details: 250 g ai/ha, Flood, applied to paddy water, evaluated after 13 days
How it was run: (§1)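 Visual scores versus untreated controls were recorded 13 days after treatment of greenhouse-held plants. At the 2-leaf stage, pots were flooded 3 cm above the soil surface and compounds added straight to the water.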

[1] = system: barnyardgrass (Echinochloa crusgalli); experiment: as above; details: 250 g ai/ha, Flood, applied to paddy water, evaluated after 13 days
How it was run: as §1

[2] = system: sedge, umbrella (small-flower umbrella sedge, Cyperus difformis); experiment: as above; details: 250 g ai/ha, Flood, applied to paddy water, evaluated after 13 days
How it was run: as §1

[3] = system: ducksalad (Heteranthera limosa); experiment: as above; details: 250 g ai/ha, Flood, applied to paddy water, evaluated after 13 days
How it was run: as §1

[4] = system: ragweed (common ragweed, Ambrosia artemisiifolia); experiment: Test A preemergence soil spray, visual injury rating 0-100; details: 10 days, 0 = no effect, 100 = complete control
How it was run: (§2)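 Loam-sand pots got test material in surfactant-containing solvent, either as a directed soil spray before emergence or on plants at the one- to two-leaf stage. Visual injury (0-100) was read after ten greenhouse days.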

[5] = system: blackgrass (Alopecurus myosuroides); experiment: as above; details: 10 days, 0 = no effect, 100 = complete control
How it was run: as §2

[6] = system: wheat (Triticum aestivum); experiment: as above; details: 10 days, 0 = no effect, 100 = complete control
How it was run: as §2

[7] = system: ryegrass, Italian (italian ryegrass, Lolium multiflorum); experiment: as above; details: 10 days, 0 = no effect, 100 = complete control
How it was run: as §2

[8] = system: barnyardgrass (Echinochloa crus-galli); experiment: as above; details: 10 days, 0 = no effect, 100 = complete control
How it was run: as §2

soybean (Glycine max) [9] = experiment: as above; details: 10 days, 0 = no effect, 100 = complete control
How it was run: as §2

corn (Zea mays) [10] = experiment: as above; details: 10 days, 0 = no effect, 100 = complete control
How it was run: as §2

kochia (Bassia scoparia) [11] = experiment: as above; details: 10 days, 0 = no effect, 100 = complete control
How it was run: as §2

[12] = system: green foxtail (Setaria viridis); experiment: as above; details: 10 days, 0 = no effect, 100 = complete control
How it was run: as §2

[13] = system: oat, wild (wild oat, Avena fatua); experiment: as above; details: 10 days, 0 = no effect, 100 = complete control
How it was run: as §2

[14] = system: palmer (palmer amaranth, palmer pigweed, Amaranthus palmeri); experiment: as above; details: 10 days, 0 = no effect, 100 = complete control
How it was run: as §2

[15] = system: ragweed (common ragweed, Ambrosia artemisiifolia); experiment: Test A postemergence application, visual injury rating 0-100; details: 10 days
How it was run: as §2

[16] = system: horseweed (Erigeron canadensis); experiment: as above; details: 10 days
How it was run: as §2

[17] = system: galium (catchweed bedstraw, Galium aparine); experiment: as above; details: 10 days
How it was run: as §2

[18] = system: blackgrass (Alopecurus myosuroides); experiment: as above; details: 10 days
How it was run: as §2

[19] = system: wheat (Triticum aestivum); experiment: as above; details: 10 days
How it was run: as §2

[20] = system: ryegrass, Italian (italian ryegrass, Lolium multiflorum); experiment: as above; details: 10 days
How it was run: as §2

[21] = system: barnyardgrass (Echinochloa crus-galli); experiment: as above; details: 10 days
How it was run: as §2

soybean (Glycine max) [22] = experiment: as above; details: 10 days
How it was run: as §2

corn (Zea mays) [23] = experiment: as above; details: 10 days
How it was run: as §2

kochia (Bassia scoparia) [24] = experiment: as above; details: 10 days
How it was run: as §2

[25] = system: green foxtail (Setaria viridis); experiment: as above; details: 10 days
How it was run: as §2

[26] = system: oat, wild (wild oat, Avena fatua); experiment: as above; details: 10 days
How it was run: as §2

[27] = system: palmer (palmer amaranth, palmer pigweed, Amaranthus palmeri); experiment: as above; details: 10 days
How it was run: as §2

[28] = 31 g ai/ha, postemergence, 0 = no effect, 100 = complete control
[29] = Postemergence, 125 g ai/ha, 0 is no effect, 100 is complete control

CC1(C(=O)NC2CC=C(C(=O)OCC(F)(F)F)C2)CN(c2cc(F)cc(F)c2)C(=O)O1 (stereo not shown) [Compound 1]
90: Ragweed plant response rating (0 to 100 scale) ([4]; 125 g ai/ha) | Wheat plant response rating (0-100) ([6]; 31 g ai/ha) | Ryegrass, Italian plant response rating (0 to 100 scale) ([7]; 125 g ai/ha) | Barnyardgrass plant response rating (0-100) ([8]; 31 g ai/ha) | Soybean plant response rating (0 to 100 scale) (soybean (Glycine max) [9]; 125 g ai/ha) | Corn plant response rating (0 to 100 scale) (corn (Zea mays) [10]; 125 g ai/ha) | Amaranth, Palmer plant response rating (0-100) ([14]; 31 g ai/ha) | Galium plant response rating (0-100) [17, 28] | Galium plant response rating (0 to 100 scale) [17, 29] | Blackgrass plant response rating (0-100) [18, 28] | Wheat plant response rating (0-100) [19, 28] | Wheat plant response rating (0 to 100 scale) [19, 29] | Soybean plant response rating (0 to 100 scale) (soybean (Glycine max) [22]; [29]) | Kochia plant response rating (0 to 100 scale) (kochia (Bassia scoparia) [24]; [29]) | Foxtail, Green plant response rating (0-100) [25, 28] | Foxtail, Green plant response rating (0 to 100 scale) [25, 29] | Oat, Wild plant response rating (0-100) [26, 28] | Amaranth, Palmer plant response rating (0-100) [27, 28] | Amaranth, Palmer / Pigweed, Palmer plant response rating (0 to 100 scale) [27, 29]
20: Ragweed plant response rating (0-100) ([4]; 31 g ai/ha)
60: Plant response rating, Ducksalad (0 to 100 scale, 0 is no effect and 100 is complete control) [3] | Blackgrass plant response rating (0-100) ([5]; 31 g ai/ha) | Corn plant response rating (0-100) (corn (Zea mays) [10]; 31 g ai/ha) | Oat, Wild plant response rating (0-100) ([13]; 31 g ai/ha) | Ragweed plant response rating (0-100) [15, 28]
70: Blackgrass plant response rating (0 to 100 scale) ([5]; 125 g ai/ha) | Soybean plant response rating (0-100) (soybean (Glycine max) [9]; 31 g ai/ha) | Ragweed plant response rating (0 to 100 scale) [15, 29] | Horseweed plant response rating (0-100) [16, 28] | Kochia plant response rating (0-100) (kochia (Bassia scoparia) [24]; [28])
95: Plant response rating, Barnyardgrass (0 to 100 scale, 0 is no effect and 100 is complete control) [1] | Plant response rating, Sedge, Umbrella (0 to 100 scale, 0 is no effect and 100 is complete control) [2]
100: Wheat plant response rating (0 to 100 scale) ([6]; 125 g ai/ha) | Barnyardgrass plant response rating (0 to 100 scale) ([8]; 125 g ai/ha) | Kochia plant response rating (0 to 100 scale) (kochia (Bassia scoparia) [11]; 125 g ai/ha) | Foxtail, Green plant response rating (0-100) ([12]; 31 g ai/ha) | Foxtail, Green plant response rating (0 to 100 scale) ([12]; 125 g ai/ha) | Amaranth, Palmer plant response rating (0 to 100 scale) ([14]; 125 g ai/ha) | Blackgrass plant response rating (0 to 100 scale) [18, 29] | Barnyardgrass plant response rating (0-100) [21, 28] | Barnyardgrass plant response rating (0 to 100 scale) [21, 29] | Corn plant response rating (0-100) (corn (Zea mays) [23]; [28]) | Corn plant response rating (0 to 100 scale) (corn (Zea mays) [23]; [29]) | Oat, Wild plant response rating (0 to 100 scale) [26, 29]
50: Kochia plant response rating (0-100) (kochia (Bassia scoparia) [11]; 31 g ai/ha)
80: Plant response rating, Rice (0 to 100 scale, 0 is no effect and 100 is complete control) (rice (Oryza sativa)) | Ryegrass, Italian plant response rating (0-100) ([7]; 31 g ai/ha) | Oat, Wild plant response rating (0 to 100 scale) ([13]; 125 g ai/ha) | Horseweed plant response rating (0 to 100 scale) [16, 29] | Ryegrass, Italian plant response rating (0-100) [20, 28] | Ryegrass, Italian plant response rating (0 to 100 scale) [20, 29] | Soybean plant response rating (0-100) (soybean (Glycine max) [22]; [28])

From patent US20260285850A1, “SUBSTITUTED OXAZOLIDINONES AND IMIDAZOLINONES AS HERBICIDES” (FMC CORPORATION, priority 2023, published 2026)
